Entries after “also recorded” stand apart in the source; their conditions may differ.
What was measured:
[1] = tested on: A549 cells; test: Cell binding assay of TAMRA-conjugated octreotide variants on A549 cells (flow cytometry); design: species or system human; conditions: neat TAMRA versus fluorescence marked octreotide 1, Fig. S-23
Description: (§1) In order to check whether the modifications on the octreotide have an influence on its interaction with somatostatin receptors in living cells, a binding study on different human cell lines was performed. For the detection of the bound peptides, octreotide and the derivatives were further modified by attaching the fluorophore TAMRA to the N terminus. To prevent the fluorophore from interacting with the binding site of octreotide derivatives, a 4,7,10-trioxa-1,13-tridecanediamine succinate (TTDS) spacer was added between the peptide N terminus and the N-hydroxy succinimide (NHS)-activated fluorophore. Both, the linker and the fluorophore, were attached to the peptides by manual SPPS (Fig. 5).
(§2) Human lung cancer cells A549 and human embryonic kidney cells HEK293 were utilized for the binding studies. A549 are widely used in binding studies with somatostatin analogues[61],[62]. […]
(§3) A549 cells (DSMZ ACC 107) and HEK293 cell s (DSMZ ACC 308) were cultured in complete growth medium consisting of Dulbecco’s MEM with 10 % fetal bovine serum (FBS) and 1x penicillin/streptomycin. […] After incubation, the cells were washed three times with ice -cold PBS-F. Using a CytoFlexS flow cytometer, PE -fluorescence was measured. […]

[2] = tested on: HEK293 cells; test: Cell binding assay of TAMRA-conjugated octreotide variants on HEK293 cells (flow cytometry); design: species or system human; conditions: neat TAMRA versus fluorescence marked octreotide 1, Fig. S-24
Description: as §1, §2, §3

For TAMRA, the “Binding efficiency (fluorescence) of TAMRA alone compared to TAMRA-linker-octreotide” value [1] was “about half the fluorescence; also recorded: about two times reduced binding efficiency” and the “Binding efficiency (fluorescence) of TAMRA alone compared to TAMRA-linker-octreotide” value [2] was “about half the fluorescence; also recorded: about two times reduced binding efficiency”.
